{
  "source": "ChEMBL document CHEMBL4619734",
  "about": "“Molecule Property Analyses of Active Compounds for Mycobacterium tuberculosis” (J Med Chem, 2020)",
  "key": {"[1]": {"tested_on": "Mycobacterium tuberculosis", "assay": "Antimycobacterial activity against Mycobacterium tuberculosis H37Rv expressing LeuRS", "assay_type": "functional"}, "[2]": {"assay": "Inhibition of human cytoplasmic LeuRS"}, "[3]": {"target": "T1, Leucine--tRNA ligase (Mycobacterium tuberculosis (strain ATCC 25618 / H37Rv), UniProt P9WFV1)", "T1 sequence (P9WFV1 whole entry)": "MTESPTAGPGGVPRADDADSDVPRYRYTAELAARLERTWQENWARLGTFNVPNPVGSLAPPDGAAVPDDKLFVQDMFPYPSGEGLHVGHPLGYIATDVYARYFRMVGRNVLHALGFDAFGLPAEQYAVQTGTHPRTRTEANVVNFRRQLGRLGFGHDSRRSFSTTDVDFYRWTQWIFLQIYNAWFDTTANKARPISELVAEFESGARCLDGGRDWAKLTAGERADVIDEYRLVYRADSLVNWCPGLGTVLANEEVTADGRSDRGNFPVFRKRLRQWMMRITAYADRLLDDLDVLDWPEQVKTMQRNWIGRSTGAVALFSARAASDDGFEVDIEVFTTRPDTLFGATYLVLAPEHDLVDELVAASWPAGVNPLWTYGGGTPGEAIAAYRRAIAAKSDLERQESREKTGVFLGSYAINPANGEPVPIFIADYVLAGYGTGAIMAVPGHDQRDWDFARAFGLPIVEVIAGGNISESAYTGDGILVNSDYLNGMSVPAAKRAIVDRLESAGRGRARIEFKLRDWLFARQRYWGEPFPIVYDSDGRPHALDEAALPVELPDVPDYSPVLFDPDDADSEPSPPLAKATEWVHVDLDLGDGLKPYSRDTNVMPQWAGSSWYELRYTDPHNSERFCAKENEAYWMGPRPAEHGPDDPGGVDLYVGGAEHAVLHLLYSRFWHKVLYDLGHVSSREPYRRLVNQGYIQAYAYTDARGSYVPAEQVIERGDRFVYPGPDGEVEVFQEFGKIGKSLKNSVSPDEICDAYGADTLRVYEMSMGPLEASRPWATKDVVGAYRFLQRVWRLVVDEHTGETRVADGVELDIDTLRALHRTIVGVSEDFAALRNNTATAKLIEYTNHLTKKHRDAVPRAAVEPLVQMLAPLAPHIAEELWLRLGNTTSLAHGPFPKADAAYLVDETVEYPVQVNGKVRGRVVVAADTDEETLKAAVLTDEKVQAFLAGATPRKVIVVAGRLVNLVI", "assay": "Inhibition of Mycobacterium tuberculosis LeuRS expressed in Escherichia coli Rosetta (DE3) cells"}, "[4]": {"tested_on": "Mycobacterium tuberculosis", "assay": "Antimycobacterial activity against Mycobacterium tuberculosis", "assay_type": "functional"}, "[5]": {"tested_on": "Mycobacterium tuberculosis", "assay": "Antimycobacterial activity against Mycobacterium tuberculosis expressing DprE1", "assay_type": "functional"}, "[6]": {"tested_on": "Mycobacterium avium", "assay": "Antimycobacterial activity against Mycobacterium avium 33 expressing MraY", "assay_type": "functional"}, "[7]": {"tested_on": "Mycobacterium tuberculosis", "assay": "Antimycobacterial activity against Mycobacterium tuberculosis H37Rv ATCC 27294 assessed as reduction in mycolic acids synthesis after 8 hrs in presence of [1, 2-14C]-acetate by TLC analysis", "assay_type": "functional", "settings": "H37Rv ATCC 27294, 8 h"}, "[8]": {"tested_on": "Mycobacterium tuberculosis", "assay": "Antimycobacterial activity against Mycobacterium tuberculosis H37Ra after 7 to 8 days by MABA assay", "assay_type": "functional"}, "[9]": {"tested_on": "Mycobacterium tuberculosis", "assay": "Antimycobacterial activity against Mycobacterium tuberculosis H37Rv", "assay_type": "functional"}, "[10]": {"tested_on": "Mycobacterium avium", "assay": "Antimycobacterial activity against Mycobacterium avium infected in mouse assessed as reduction in mycolic acids synthesis", "assay_type": "functional"}, "[11]": {"tested_on": "Mycolicibacterium smegmatis", "assay": "Antimycobacterial activity against Mycobacterium smegmatis", "assay_type": "functional"}, "[12]": {"tested_on": "Mycobacterium tuberculosis", "assay": "Antimycobacterial activity against Mycobacterium tuberculosis clinical isolates", "assay_type": "functional"}, "[13]": {"tested_on": "Mycobacterium tuberculosis", "assay": "Antimycobacterial activity against Mycobacterium tuberculosis expressing Rv1258c efflux pump", "assay_type": "functional"}, "[14]": {"tested_on": "Mycobacterium tuberculosis", "assay": "Antimycobacterial activity against Mycobacterium tuberculosis expressing WecA", "assay_type": "functional"}},
  "data": [
    {"molecule": "NC[C@H]1OB(O)c2c(OCCO)ccc(Cl)c21", "values": [
      {"measurement": "MIC", "setting": "[1]", "result": 0.08, "unit": "µM"},
      {"measurement": "IC50", "setting": "[2]", "result": 140, "unit": "µM"},
      {"measurement": "IC50", "setting": "[3]", "result": 0.216, "unit": "µM"}
    ]},
    {"molecule": "Cc1nn2c(O)cc(-c3ncccn3)nc2c1-c1ccc(Cl)cc1", "values": [
      {"measurement": "MIC", "setting": "[4]", "result": 1.1, "unit": "µg/mL"}
    ]},
    {"molecule": "C[C@H]1COC2(CCN(c3nc(=O)c4cc(C(F)(F)F)cc([N+](=O)[O-])c4s3)CC2)O1", "note": "[BTZ-043]", "values": [
      {"measurement": "MIC", "setting": "[5]", "result": 0.001, "unit": "µg/mL"}
    ]},
    {"molecule": "CO[C@H]1[C@@H](O)[C@H](n2ccc(=O)[nH]c2=O)O[C@@H]1[C@@H](O[C@H]1OC(C(=O)NC2CCC[C@@H](C)NC2=O)=C[C@H](O)[C@@H]1O)C(N)=O", "note": "(some centres not stated)", "values": [
      {"measurement": "MIC", "setting": "[6]", "result": 1, "unit": "µg/mL"}
    ]},
    {"molecule": "NC(=S)N/N=C/c1cccnc1", "note": "[NICOTHIAZONE]", "values": [
      {"measurement": "MIC", "setting": "[7]", "result": 3.1, "unit": "µg/mL"}
    ]},
    {"molecule": "CC(=O)NC[C@H]1CN(c2ccc(N3CCSCC3)c(F)c2)C(=O)O1", "note": "[SUTEZOLID]", "values": [
      {"measurement": "MIC", "setting": "[4]", "result": "0.03 to 0.5", "unit": "µg/mL"}
    ]},
    {"molecule": "O=[N+]([O-])c1ccc(/C=N/Nc2nc(Nc3ccccc3)nc(N3CCOCC3)n2)o1", "values": [
      {"measurement": "MIC", "setting": "[4]", "result": 0.63, "unit": "µM"}
    ]},
    {"molecule": "Cc1c(C(=O)C2CC2)[n+]([O-])c2cc(Cl)c(Cl)cc2[n+]1[O-]", "values": [
      {"measurement": "MIC", "setting": "[4]", "result": 1.2, "unit": "µg/mL"}
    ]},
    {"molecule": "CCCCCCCCCCNC(CC(=O)OCC)[C@H]1O[C@@H]2OC(C)(C)O[C@@H]2C1OC", "note": "(some centres not stated)", "values": [
      {"measurement": "MIC", "setting": "[8]", "result": 3.12, "unit": "µg/mL"}
    ]},
    {"molecule": "CCCCS(=O)(=O)Nc1ccc2cnn(C)c2c1", "values": [
      {"measurement": "MIC", "setting": "[9]", "result": 0.8, "unit": "µM"}
    ]},
    {"molecule": "C[C@]1(COc2ccc(N3CCC(Oc4ccc(OC(F)(F)F)cc4)CC3)cc2)Cn2cc([N+](=O)[O-])nc2O1", "note": "[DELAMANID]", "values": [
      {"measurement": "MIC", "setting": "[4]", "result": 0.012, "unit": "µg/mL"}
    ]},
    {"molecule": "O=[N+]([O-])c1cn2c(n1)OC[C@@H](OCc1ccc(OC(F)(F)F)cc1)C2", "note": "[PRETOMANID]", "values": [
      {"measurement": "MIC90", "setting": "[4]", "result": 0.039, "unit": "µg/mL"}
    ]},
    {"molecule": "c1ccc(-c2c[nH]cn2)cc1", "values": [
      {"measurement": "MIC", "setting": "[4]", "result": "< 10", "unit": "µM"}
    ]},
    {"molecule": "CCCCCCCCc1nc2cc(C)c(C)cc2[nH]1", "values": [
      {"measurement": "MIC90", "setting": "[4]", "result": 0.75, "unit": "µM"}
    ]},
    {"molecule": "Cc1ccc(C(=O)Nc2ccc([N+](=O)[O-])cc2)s1", "values": [
      {"measurement": "MIC", "setting": "[4]", "result": 0.5, "unit": "µg/mL"}
    ]},
    {"molecule": "CC(=O)Nc1ccc(/C=N/NC(N)=S)cc1", "note": "[AMITHIOZONE]", "values": [
      {"measurement": "MIC", "setting": "[10]", "result": 0.1, "unit": "µg/mL"}
    ]},
    {"molecule": "O=[N+]([O-])c1ccc(/C=N/Nc2nc(Nc3ccccc3)nc(Nc3ccccc3)n2)o1", "values": [
      {"measurement": "MIC", "setting": "[4]", "result": 0.078, "unit": "µM"}
    ]},
    {"molecule": "COc1nc2ccc(Br)cc2cc1[C@@H](c1ccccc1)[C@@](O)(CCN(C)C)c1cccc2ccccc12", "note": "[BEDAQUILINE]", "values": [
      {"measurement": "MIC99", "setting": "[11]", "result": 0.03, "unit": "µg/mL"}
    ]},
    {"molecule": "CC(=O)NC[C@H]1CN(c2cc(F)c(C3=CCN(C(=O)[C@@H](O)CO)CC3)c(F)c2)C(=O)O1", "values": [
      {"measurement": "MIC", "setting": "[12]", "result": "0.25 to 1", "unit": "µg/mL"}
    ]},
    {"molecule": "Cc1ccc(OCCCCCCn2ccnc2)c(C)c1", "values": [
      {"measurement": "MIC", "setting": "[4]", "result": 4.8, "unit": "µg/mL"}
    ]},
    {"molecule": "CN[C@H]1[C@@H](O)[C@@H](NC)CC2O[C@@H]3O[C@H](C)C[C@@H](NC(=O)Cc4ccc(O)cn4)[C@]3(O)C[C@@H]21", "note": "(some centres not stated)", "values": [
      {"measurement": "MIC", "setting": "[13]", "result": 1.6, "unit": "µg/mL"}
    ]},
    {"molecule": "NC(=O)c1sc(N2CCOCC2)cc1OCCc1ccc(OC(F)(F)F)cc1", "values": [
      {"measurement": "MIC", "setting": "[4]", "result": 0.24, "unit": "µM"}
    ]},
    {"molecule": "COc1ccc(/C(C)=N/NC(N)=S)cc1", "values": [
      {"measurement": "MIC", "setting": "[7]", "result": "< 0.05", "unit": "µg/mL"}
    ]},
    {"molecule": "CCCCc1ccc(NC(=O)C2=CCN(C)C(C(O[C@@H]3O[C@H](CN)[C@@H](O)[C@H]3O)[C@H]3OC(n4ccc(=O)[nH]c4=O)[C@H](O)[C@@H]3O)C(=O)N2C)cc1", "note": "(some centres not stated)", "values": [
      {"measurement": "MIC", "setting": "[14]", "result": 1.56, "unit": "µg/mL"}
    ]},
    {"molecule": "CN[C@H]1[C@@H](O)[C@@H](NC)CC2O[C@@H]3O[C@H](C)C[C@@H](NC(=O)Cc4ccc(Cl)cn4)[C@]3(O)C[C@@H]21", "note": "(some centres not stated)", "values": [
      {"measurement": "MIC", "setting": "[13]", "result": 0.8, "unit": "µg/mL"}
    ]}
  ]
}
